Results reported in ChEMBL document CHEMBL4017513, “Structure-Activity Relationships of Potent, Targeted Covalent Inhibitors That Abolish Both the Transamidation and GTP Binding Activities of Human Tissue Transglutaminase” (J Med Chem, 2017).
Peptide text beside a SMILES is read from it. * marks the point of attachment. Cbz = O=C(OCc1ccccc1)*; Acryloyl = C=CC(=O)*

Legend:
[1] = biological target: T1, Protein-glutamine gamma-glutamyltransferase (Homo sapiens, UniProt P21980); assay: (§1) Irreversible inhibition of human TG2 using AL5 as substrate by double reciprocal plot method
T1 sequence (P21980 whole entry): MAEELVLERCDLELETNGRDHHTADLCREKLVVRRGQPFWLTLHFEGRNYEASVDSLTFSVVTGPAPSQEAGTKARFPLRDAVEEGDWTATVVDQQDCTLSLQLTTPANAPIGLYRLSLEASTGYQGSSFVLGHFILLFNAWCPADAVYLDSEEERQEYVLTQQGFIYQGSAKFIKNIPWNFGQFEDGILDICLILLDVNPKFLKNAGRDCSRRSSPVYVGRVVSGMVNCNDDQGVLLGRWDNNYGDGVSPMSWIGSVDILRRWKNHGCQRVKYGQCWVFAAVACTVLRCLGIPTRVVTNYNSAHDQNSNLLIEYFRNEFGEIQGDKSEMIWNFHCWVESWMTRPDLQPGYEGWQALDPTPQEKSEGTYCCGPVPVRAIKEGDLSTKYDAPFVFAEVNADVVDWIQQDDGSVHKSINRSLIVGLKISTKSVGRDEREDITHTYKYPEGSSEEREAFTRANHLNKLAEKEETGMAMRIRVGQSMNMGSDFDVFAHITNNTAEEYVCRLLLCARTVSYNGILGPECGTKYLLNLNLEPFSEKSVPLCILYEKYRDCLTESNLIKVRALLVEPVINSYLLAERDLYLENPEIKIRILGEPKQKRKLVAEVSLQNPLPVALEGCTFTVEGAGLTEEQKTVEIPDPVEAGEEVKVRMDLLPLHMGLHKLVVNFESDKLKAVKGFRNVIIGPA

[2] = biological target: T2, Protein-glutamine gamma-glutamyltransferase (Homo sapiens) (UniProt P21980); assay: as §1
T2 sequence (whole entry): T1 sequence (P21980 whole entry)

[3] = biological target: T2, Protein-glutamine gamma-glutamyltransferase (Homo sapiens); assay: Ratio of kinact to Ki for human TG2 by double reciprocal plot method
[4] = biological target: T2, Protein-glutamine gamma-glutamyltransferase (Homo sapiens); assay: Ratio of kinact to Ki for human TG2 by colorimetric assay
[5] = biological target: T1, Protein-glutamine gamma-glutamyltransferase; assay: (§2) Irreversible inhibition of human TG2 using AL5 as substrate by colorimetric assay
[6] = biological target: T2, Protein-glutamine gamma-glutamyltransferase (Homo sapiens); assay: as §2
[7] = Inhibition of guinea pig liver TG2 using Z-Gln-Gly/DMPDA as substrate preincubated for 3 mins followed by protein addition; set-up: species or system Cavia porcellus
[8] = organism: Cavia porcellus; assay: Ratio of Kinact to Ki for guinea pig liver TG2
[9] = Inhibition of human ECS cells invasion by using Engelbreth-Holm-Swarm mouse tumor matrigel measured after 18 hrs by DAPI staining-based flourescence microscopy; assay type: functional, cell-based

| Compound | Ratio [4] | Ki [5] | Kinact [6] | further results |
| --- | --- | --- | --- | --- |
| C=CC(=O)NCCC[C@H](NC(=O)OCc1ccccc1)C(=O)N1CCN(S(=O)(=O)c2cccc3c(N(C)C)cccc23)CC1 | – | – | – | Ki [1]: 47.7 µM; Kinact [2]: 1.18 min⁻¹; Ratio [3]: 24.7 ×10³ /M/min |
| C=CC(=O)NCCCC[C@H](NC(=O)OCc1ccccc1)C(=O)N1CCN(S(=O)(=O)c2ccc3ccccc3c2)CC1 | 57.3 ×10³ /M/min | 6.7 µM | 0.38 min⁻¹ | – |
| C=CC(=O)NCCCC[C@H](NC(=O)OCc1ccccc1)C(=O)N1CCN(c2ccccc2Cl)CC1 | 56 ×10³ /M/min | 17.4 µM | 0.97 min⁻¹ | – |
| C=CC(=O)NCCCC[C@H](NC(=O)OCc1ccccc1)C(=O)N1CCN(S(=O)(=O)Cc2ccccc2)CC1 | 34.9 ×10³ /M/min | 14.7 µM | 0.47 min⁻¹ | – |
| C=CC(=O)NCCCC[C@H](NC(=O)OCc1ccccc1)C(=O)N1CCN(C(=O)c2cc3ccc(O)cc3oc2=O)CC1 | 62.1 ×10³ /M/min | 11.2 µM | 0.69 min⁻¹ | – |
| C=CC(=O)NCCCC[C@H](NC(=O)OCc1ccccc1)C(=O)N1CCN(S(=O)(=O)c2cccc3c(N(C)C)cccc23)CC1 | – | 12.9 µM | – | EC50 [9]: 3.9 µM |
| C=CC(=O)NCCCC[C@H](NC(=O)OCc1ccccc1)C(=O)NCCCCNS(=O)(=O)c1cccc2c(N(C)C)cccc12 | – | – | – | Ki [1]: 27.1 µM; Kinact [2]: 2.19 min⁻¹; Ratio [3]: 80.8 ×10³ /M/min |
| C=CC(=O)NCCCC[C@H](NC(=O)OCc1ccccc1)C(=O)NCCNS(=O)(=O)c1cccc2c(N(C)C)cccc12 | – | – | – | Ki [1]: 23.5 µM; Kinact [2]: 1.45 min⁻¹; Ratio [3]: 61.5 ×10³ /M/min |
| C=CC(=O)NCCCC[C@H](NC(=O)OCc1ccccc1)C(=O)N1CCN(C(=O)c2cccc3ccccc23)CC1 | – | 8.9 µM | – | – |
| C=CC(=O)NCCCC[C@H](NC(=O)OCc1ccccc1)C(=O)N1CCN(C(=O)c2ccc3ccccc3c2)CC1 | 90.3 ×10³ /M/min | 13.4 µM | 1.21 min⁻¹ | – |
| C=CC(=O)NCCCC[C@H](NC(=O)OCc1ccccc1)C(=O)N1CCN(S(=O)(=O)c2cccc3ccccc23)CC1 | 37.2 ×10³ /M/min | 10.4 µM | 0.39 min⁻¹ | – |
| C=CC(=O)NCCCC[C@H](NC(=O)OCc1ccccc1)C(N)=O | – | – | – | Ki [1]: 35.1 µM; Kinact [2]: 1.08 min⁻¹; Ratio [3]: 30.7 ×10³ /M/min |
| C=CC(=O)NCCCC[C@H](NC(=O)OCc1ccccc1)C(=O)NCCCNS(=O)(=O)c1cccc2c(N(C)C)cccc12 | – | – | – | Ki [1]: 30.5 µM; Kinact [2]: 0.85 min⁻¹; Ratio [3]: 27.6 ×10³ /M/min |
| C=CC(=O)NCCCC[C@H](NC(=O)OCc1ccccc1)C(=O)N1CCN(S(=O)(=O)c2ccccc2)CC1 | 53.3 ×10³ /M/min | 8.8 µM | 0.47 min⁻¹ | – |
| C=CC(=O)NCCCC[C@H](NC(=O)OCc1ccccc1)C(=O)N1CCN(S(=O)(=O)C2CCCCC2)CC1 | 62.9 ×10³ /M/min | 11 µM | 0.69 min⁻¹ | – |

Now from value to molecule, other results behind:

| Ratio [4] | Ki [5] | Kinact [6] | Compound | further results |
| --- | --- | --- | --- | --- |
| 130 ×10³ /M/min | 36.6 µM | 4.77 min⁻¹ | C=CC(=O)NCCCC[C@H](NC(=O)OCc1ccccc1)C(=O)N1CCN(C(=O)c2ccccc2)CC1 | – |
| 26.1 ×10³ /M/min | 48.1 µM | 1.26 min⁻¹ | C=CC(=O)NCCCC[C@H](NC(=O)OCc1ccccc1)C(=O)NCC(=O)O (Cbz-Lys(Acryloyl)-Gly-OH) | Ki [7]: 150 nM; Ratio [8]: 3 ×10⁶ /M/min |
| 39.4 ×10³ /M/min | 36 µM | 1.42 min⁻¹ | C=CC(=O)NCCCC[C@H](NC(=O)OCc1ccccc1)C(=O)N1CCN(S(=O)(=O)CC)CC1 | – |
| 113 ×10³ /M/min | 20 µM | 2.26 min⁻¹ | C=CC(=O)NCCCC[C@H](NC(=O)OCc1ccccc1)C(=O)N1CCN(C(=O)Cc2ccccc2)CC1 | – |
| 36.8 ×10³ /M/min | 40.1 µM | 1.48 min⁻¹ | C=CC(=O)NCCCC[C@H](NC(=O)OCc1ccccc1)C(=O)N1CCN(S(=O)(=O)c2cccs2)CC1 | – |
| 91.3 ×10³ /M/min | 32.1 µM | 2.93 min⁻¹ | C=CC(=O)NCCCC[C@H](NC(=O)OCc1ccccc1)C(=O)N1CCN(C(=O)c2ccccn2)CC1 | – |
| 51 ×10³ /M/min | 28.9 µM | 1.47 min⁻¹ | C=CC(=O)NCCCC[C@H](NC(=O)OCc1ccccc1)C(=O)N1CCOCC1 | – |
| 78.4 ×10³ /M/min | 6.4 µM | 0.5 min⁻¹ | C=CC(=O)NCCCC[C@H](NC(=O)OCc1ccccc1)C(=O)N1CCN(S(C)(=O)=O)CC1 | – |
| 54.7 ×10³ /M/min | 9.1 µM | 0.5 min⁻¹ | C=CC(=O)NCCCC[C@H](NC(=O)OCc1ccccc1)C(=O)N1CCN(S(=O)(=O)C(C)C)CC1 | – |
| – | 60.3 µM | – | C=CC(=O)NCCCC[C@H](NC(=O)OCc1ccccc1)C(=O)O | Ki [7]: 520 nM |
| 36.2 ×10³ /M/min | 40 µM | 1.45 min⁻¹ | C=CC(=O)NCCCC[C@H](NC(=O)OCc1ccccc1)C(=O)NCC(=O)OC (Cbz-Lys(Acryloyl)-Gly-OMe) | – |
| 37 ×10³ /M/min | 38.7 µM | 1.43 min⁻¹ | C=CC(=O)NCCCC[C@H](NC(=O)OCc1ccccc1)C(=O)N1CCN(C(=O)c2ccncc2)CC1 | – |
| 61.4 ×10³ /M/min | 23.4 µM | 1.44 min⁻¹ | C=CC(=O)NCCCC[C@H](NC(=O)OCc1ccccc1)C(=O)N1CCN(C(=O)c2cccnc2)CC1 | – |
| 36.9 ×10³ /M/min | 52.1 µM | 2.06 min⁻¹ | C=CC(=O)NCCCC[C@H](NC(=O)OCc1ccccc1)C(=O)N1CCN(C(C)=O)CC1 | – |
